Inhibition data for 25 compounds are collected here from patent EP1724268A1, “COMPOUND HAVING TGF-BETA INHIBITORY ACTIVITY AND PHARMACEUTICAL COMPOSITION CONTAINING SAME” (KIRIN BEER KABUSHIKI KAISHA, priority 2004, dated 2005).

Molecules are shown by their SMILES.

The test system of the assay is TGFβ signal. Kind of assay: TGFβ signal inhibitory activity, (SBE)4-Luc reporter in A549 cells (Test Examples 1A and 1B). Type of assay: cell-based, human. The conditions noted are these: Homo sapiens, A549, TGFβ-1 2 ng/ml, 4 hr, Table 1A, read-out: TGFβ inhibition rate, %; for inhibition at 3 µM: test compound 3 µM; for inhibition at 10 µM: test compound 10 µM. The gist of the method:
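Stable A549 line carrying (SBE)4-Luc Smad3-binding reporter treated with compound plus TGFβ-1 (2 ng/ml) for 4 hr; luciferase read by chemiluminescence. Percent inhibition relative to TGFβ-only and untreated cells, tested at 3 µM and 10 µM, some also at 1 µM.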

In the case of `Cc1cc(Oc2ccnc3ccc(-c4cn[nH]c4)cc23)c(-c2ccccn2)nc1C` [Compound 169, 5,6-Dimethyl-3-[6-(1H-pyrazol-4-yl)-quinolin-4-yloxy]-[2,2']bipyridine], the inhibition (usually the relative decrease from the control value, in per cent) at 3 µM was 100% and the inhibition at 10 µM amounted to 100%. On to `Cc1cc2nccc(Oc3cc(C)c(C)nc3-c3ccccn3)c2cc1C` [Compound 170, 3-(6,7-Dimethyl-quinolin-4-yloxy)-5,6-dimethyl-[2,2']bipyridine], for which the inhibition at 3 µM turned out to be 98% and the inhibition at 10 µM was 100%. For `Cc1cc(Oc2ccnc3cc(-c4ccsc4)ccc23)c(-c2ccccn2)nc1C` [Compound 171, 5,6-Dimethyl-3-(7-thioahen-3-yl-quinolin-4-yloxy)-[2,2']bipyridine], the inhibition at 3 µM came to 100% and the inhibition at 10 µM amounted to 100%. For the compound `Cc1cc(Oc2ccnc3cc(-c4csc5ccccc45)ccc23)c(-c2ccccn2)nc1C` [Compound 172, 3-(7-Benzo[b]thiophen-3-yl-quinolin-4-yloxy)-5,6-dimethyl-[2,2']bipyridine], the inhibition at 3 µM worked out at 49% and the inhibition at 10 µM was 90%. For `Cc1cc(Oc2ccnc3cc(-c4cc5ccccc5o4)ccc23)c(-c2ccccn2)nc1C` [Compound 173, 3-(7-Benzofuran-2-yl-quinolin-4-yloxy)-5,6-dimethyl-[2,2']bipyridine] the same measures were 57% and 92%. Taken in the same sequence, the figures for `Cc1cc(Oc2ccnc3ccc(-c4ccccn4)cc23)c(-c2ccccn2)nc1C` [Compound 174, 5,6-Dimethyl-3-(6-pyridin-2-yl-quinolin-4-yloxy)-[2,2']bipyridine] were 89% and 100%. For `Cc1cc(Oc2ccnc3ccc(-c4ncccn4)cc23)c(-c2ccccn2)nc1C` [Compound 175, 5,6-Dimethyl-3-(6-pyrimidin-2-yl-quinolin-4-yloxy)-[2,2']bipyridine] the same measures were 97% and 100%. As to `Cc1cc(Oc2ccnc3cc(-c4ccccn4)ccc23)c(-c2ccccn2)nc1C` [Compound 176, 5,6-Dimethyl-3-(7-pyridin-2-yl-quinolin-4-yloxy)-[2,2']bipyridine], the inhibition at 3 µM is 99% and the inhibition at 10 µM was found to be 100%. Taken in the same sequence, the figures for `Cc1cc(Oc2ccnc3cc(-c4ncccn4)ccc23)c(-c2ccccn2)nc1C` [Compound 177, 5,6-Dimethyl-3-(7-pyrimidin-2-yl-quinolin-4-yloxy)-[2,2']blpyridine] were 98% and 100%. Taken in the same sequence, the figures for `COc1cc2c(Oc3cc4cccnc4nc3-c3ccccc3)ccnc2cc1OCCO` [Compound 178, 2-[6-Methoxy-4-(2-phenyl-[1,8]naphthyridin-3-yloxy)-quinolin-7-yloxy]-ethanol] were 100% and 100%. With `CCc1ccc(Oc2ccnc3cc(C(C)(C)C)sc23)c(-c2ccccn2)n1` [Compound 180, 3-(2-Tert-butyl-thieno[3,2-b]pyridin-7-yloxy)-6-ethyl-[2,2']bipyridine], the inhibition at 3 µM came out at 74% and the inhibition at 10 µM worked out at 98%. Taken in the same sequence, the figures for `CCc1ccc(Oc2ccnc3ccc(OCc4ccccc4)cc23)c(-c2ccccn2)n1` [Compound 183, 3-(6-Benzyloxy-quinolin-4-yloxy)-6-ethyl-[2,2']bipyridine] were 100% and 100%. Taken in the same sequence, the figures for `CCc1ccc(Oc2ccnc3cc(C(N)=O)c(Cl)cc23)c(-c2ccccn2)n1` [Compound 185, 6-Chloro-4-(6-ethyl-[2,2']bipyridinyl-3-yloxy)-quinoline-7-carboxylic acid amide] were 96% and 100%. Consider `COc1cc2nccc(Oc3ccc(C)nc3-c3ncccn3)c2cc1OC` [Compound 188, 4-(6-Methyl-2-pyrimidin-2-yl-pyridin-3-yloxy)-6,7-dimethoxy-quinoline], for which the inhibition at 3 µM was 100% and the inhibition at 10 µM worked out at 100%. `CCCNC(=O)NCCOc1ccc2nccc(Oc3ccc(CC)nc3-c3ccccn3)c2c1` [Compound 189, 1-{2-[4-(6-Ethyl-[2,2']bipyridinyl-3-yloxy)-quinolin-6-yloxy]-ethyl}-3-propyl-urea]: the inhibition at 3 µM worked out at 97% and the inhibition at 10 µM was 99%. For `CCc1ccc(Oc2ccnc3ccc(OCc4ccccc4)cc23)c(-c2ncccn2)n1` [Compound 190, 6-Benzyloxy-4-(6-ethyl-2-pyrimidin-2-yl-pyridin-3-yloxy)-quinoline] the same measures were 100% and 100%.

As to `CCc1ccc(Oc2ccnc3ccc(O)cc23)c(-c2ncccn2)n1` [Compound 191, 4-(6-Ethyl-2-pyrimidin-2-yl-pyridin-3-yloxy)-quinolin-6-ol], the inhibition at 3 µM was 99% and the inhibition at 10 µM is 100%.

As to `CCc1ccc(Oc2ccnc3cc(C(N)=O)c(OCc4ccccc4)cc23)c(-c2ncccn2)n1` [Compound 193, 6-Benzyloxy-4-(6-ethyl-2-pyrimidin-2-yl-pyridin-3-yloxy)-quinoline-7-carboxylic acid amide], the inhibition at 3 µM amounted to 80%. Same read-out and setting: for `CCc1ccc(Oc2ccnc3ccc(OCCNS(C)(=O)=O)cc23)c(-c2ncccn2)n1` [Compound 203, N-{2-[4-(6-Ethyl-2-pyrimidin-2-yl-pyridin-3-yloxy)-quinolin-6-yloxy]-ethyl}-methanesulfonic acid amide] the value was 79%; for `CCc1ccc(Oc2ccnc3ccc(OCCOC(=O)C(C)(C)C)cc23)c(-c2ncccn2)n1` [Compound 207, 2-[4-(6-Ethyl-2-pyrimidin-2-yl-pyridin-3-yloxy)-quinolin-6-yloxy]-ethyl 2,2-dimethyl-propanate], 93%. The same measure, in the same setting: for `CCc1ccc(Oc2ccnc3ccc(OCCOC(=O)[C@@H](N)C(C)C)cc23)c(-c2ncccn2)n1` [Compound 208, 2-[4-(6-Ethyl-2-pyrimidin-2-yl-pyridin-3-yloxy)-quinolin-6-yloxy]-ethyl (S)-2-amino-3-methyl-butanoate] the value was 75%; for `Cc1ccc(Oc2ccnc3ccc(OCCN4CCOCC4)cc23)c(-c2ncccn2)n1` [Compound 209, 4-(6-Methyl-2-pyrimidin-2-yl-pyridin-3-yloxy)-6-(2-morpholin-4--yl-ethoxy)-quinoline], 54%. The same measure, in the same setting: then `Cc1ccc(Oc2ccnc3ccc(OCCCCl)cc23)c(-c2ncccn2)n1` [Compound 210, 6-(3-Chloro-propoxy)-4-(6-methyl-2-pyrimidin-2-yl-pyridin-3-yloxy)-quinoline], with 87%; and `Cc1ccc(Oc2ccnc3ccc(OCCCN(C)CCO)cc23)c(-c2ncccn2)n1` [Compound 211, 2-(Methyl-{3-[4-(6-methyl-2-pyrimidin-2-yl-pyridin-3-yloxy)-quinolin-6-yloxy]-propyl}-amino)-ethanol], with 54%. Take `Cc1ccc(Oc2ccnc3ccc(OCCCN4CCCCC4)cc23)c(-c2ncccn2)n1` [Compound 212, 4-(6-Methyl-2-pyrimidin-2-yl-pyridin-3-yloxy)-6-(3-piperidin-1- ? -propoxy)-quinoline]: the inhibition at 3 µM was 55%.
